Assay results published in US20070258961A1, “Cholesterol efflux and uses thereof” (priority 2002, published 2007).

Assays:
[1] = system: CYP27; assay: CYP27 expression in transfected macrophages with demethylation agent; type: cell-based, mouse; details: 0.5 μM, CMV promoter silenced by methylation
Protocol: Red, in D, is the mitochondrial marker dye, green in C, is CYP27.
Macrophages were cultured and transfected the same as for the CHOP cells in Example 1 except that after transfection, 0.5 μM 5-azacytidine was included in all further incubations. […] Panels A and B in FIG. 11 are actually transfected cells, but not treated with 5-azacytidine.

[2] = system: CYP27; details: promoter studies; cited from earlier work

For `Nc1ncn([C@@H]2O[C@H](CO)[C@@H](O)[C@H]2O)c(=O)n1` [5-azacytidine], the “effect on CYP27 expression in transfected macrophages” value [1] was “expressed CYP27”.
In the case of `C[C@H](CCC(=O)O)[C@H]1CC[C@H]2[C@@H]3[C@H](O)C[C@@H]4C[C@H](O)CC[C@]4(C)[C@H]3C[C@H](O)[C@]12C` [cholic acid], the “regulation of CYP27 expression” value [2] is listed as “downregulated”.
